Assay results reported in US11872263B2, “AIMP1 protein fragment and hair growth-promoting composition containing same as active ingredient” (CUREBIO THERAPEUTICS, priority 2016, dated 2024).

Assays:
[1] = system: dorsal hair of depilated C57BL6 mice; experiment: In vivo hair regrowth after depilation of dorsal skin of mice; set-up: species or system mouse; details: 13 days after depilation, 100 nM polypeptide, 80 μl topical once a day
Experimental: (§1) The hair of the dorsal skin of mice (7 weeks old male C57BL6, purchased from Orient Bio Inc.) was cut out with a clipper, and hair removal cream (Niclean, Ildong Pharmaceutical) was applied. The depilated area was about 2×2.5 cm. Mice were treated with 20% glycerol/PBS (control group), 3% Minoxidil (MNX, 140 mM), FGF7 (100 nM) or Neo-Pep of the present invention (polypeptide of SEQ ID NO: 1, 100 nM), respectively, once a day in 80 μl using brush, for 13 days (n=6 per group).
as §1, with “Specifically, the hair” for “The hair”, “of a mouse” for “of mice”, “group). For comparative observation, the dorsal skin of the mouse was photographed before and after the beginning of the test.” for “group).”

[2] = system: CD34+ hair follicle stem cells; experiment: In vitro hair growth assay / BrdU proliferation assay with CD34+ hair follicle stem cells; assay type: cell-based, mouse; details: each peptide 100 nM, 24 hours
Experimental: The hair of the dorsal skin of 7 weeks old male C57BL6 mice (purchased from Orient Bio Inc.) were cut with a clipper and skin tissue samples of the depilated dorsal region of the mice were collected. The collected skin tissue samples were immersed in medium using collagenase, DNase I, and hyaluronidase, and cells were isolated using Gentle MACSTM Dissociator (Miltenyi Biotec). After the cells were separated, the separated cells were incubated with a mouse CD34-Biotin antibody (Miltenyi Biotec). Cells and antibody solutions were incubated with streptavidin microbeads (Miltenyi Biotec) and then separated using LS column (Miltenyi Biotec). The separated cells were cultured in DMEM medium containing 10% FBS, 1% penicillin/streptomycin solution in humidified air of 95% 02 and 5% CO2 at 37° C.
Cell proliferation can be confirmed using the BrdU cell proliferation assay kit (Cell Signaling). Proliferation assays were performed using protocols presented by […]. Briefly, the cells were incubated with BrdU for 2 h. The primary BrdU detection antibody was incubated for 1 hour and the secondary anti-mouse IgG, HRP-conjugate antibody was incubated for 30 minutes.
A hair growth in vitro assay was performed using the Cyquant Assay (Thermo Fisher). […]

Sequence: AVLKRLEQKGAEADQ (Homo sapiens N9 polypeptide; Neo-Pep-(1-15)) [Polypeptide N9, fragment of Neo-Pep consisting of 15 amino acids without KEKA]
- dorsal hair growth compared with control group [1]: didn't show such effect

Sequence: AEADQIIEYLKQQVSLLKEK (Homo sapiens N4 polypeptide; Neo-Pep-(11-30)) [Polypeptide N4, fragment of Neo-Pep consisting of 20 consecutive amino acids without KEKA]
- inducing proliferation of CD34+ hair follicle stem cells (relative cell number) [2]: didn't show any effect

Sequence: YLKQQVSLLKEKAILQATLR (Homo sapiens N6 polypeptide; Neo-Pep-(19-38)) [Polypeptide N6, fragment of Neo-Pep comprising KEKA]
- inducing proliferation of CD34+ hair follicle stem cells (relative cell number) [2]: induced proliferation

Sequence: KQQVSLLKEKAILQA (Homo sapiens N13 polypeptide; Neo-Pep-(21-35)) [Polypeptide N13, fragment of Neo-Pep consisting of 15 amino acids comprising KEKA]
- dorsal hair growth compared with control group [1]: grew much more

Sequence: LKRLEQKGAEADQIIEYLKQ (Homo sapiens N2 polypeptide; Neo-Pep-(3-22)) [Polypeptide N2, fragment of Neo-Pep consisting of 20 consecutive amino acids without KEKA]
- inducing proliferation of CD34+ hair follicle stem cells (relative cell number) [2]: didn't show any effect

Sequence: KGAEADQIIEYLKQQVSLLK (Homo sapiens N3 polypeptide; Neo-Pep-(9-28)) [Polypeptide N3, fragment of Neo-Pep consisting of 20 consecutive amino acids without KEKA]
- inducing proliferation of CD34+ hair follicle stem cells (relative cell number) [2]: didn't show any effect

Sequence: QVSLLKEKAILQATLREEK (Homo sapiens N8 polypeptide; Neo-Pep-(23-41)) [Polypeptide N8, fragment of Neo-Pep comprising KEKA]
- inducing proliferation of CD34+ hair follicle stem cells (relative cell number) [2]: induced proliferation

Sequence: IEYLKQQVSLLKEKA (Homo sapiens N12 polypeptide; Neo-Pep-(17-31)) [Polypeptide N12, fragment of Neo-Pep consisting of 15 amino acids comprising KEKA]
- dorsal hair growth compared with control group [1]: grew much more

Sequence: LKEKAILQATLREEK (Homo sapiens N14 polypeptide; Neo-Pep-(27-41)) [Polypeptide N14, fragment of Neo-Pep consisting of 15 amino acids comprising KEKA]
- dorsal hair growth compared with control group [1]: grew much more

Sequence: EADQIIEYLKQQVSL (Homo sapiens N10 polypeptide; Neo-Pep-(12-26)) [Polypeptide N10, fragment of Neo-Pep consisting of 15 amino acids without KEKA]
- dorsal hair growth compared with control group [1]: didn't show such effect

Sequence: KQQVSLLKEKAILQATLREE (Homo sapiens N7 polypeptide; Neo-Pep-(21-40)) [Polypeptide N7, fragment of Neo-Pep comprising KEKA]
- inducing proliferation of CD34+ hair follicle stem cells (relative cell number) [2]: induced proliferation

Sequence: AVLKRLEQKGAEADQIIEYL (Homo sapiens N1 polypeptide; Neo-Pep-(1-20)) [Polypeptide N1, fragment of Neo-Pep consisting of 20 consecutive amino acids without KEKA]
- inducing proliferation of CD34+ hair follicle stem cells (relative cell number) [2]: didn't show any effect

Sequence: ADQIIEYLKQQVSLL (Homo sapiens N11 polypeptide; Neo-Pep-(13-27)) [Polypeptide N11, fragment of Neo-Pep consisting of 15 amino acids without KEKA]
- dorsal hair growth compared with control group [1]: didn't show such effect

Sequence: IEYLKQQVSLLKEKAILQAT (Homo sapiens N5 polypeptide; Neo-Pep-(17-36)) [Polypeptide N5, fragment of Neo-Pep comprising KEKA]
- inducing proliferation of CD34+ hair follicle stem cells (relative cell number) [2]: induced proliferation
